Legend:
Sertoli cells = assay: inhibin-B secretion by Sertoli cells (inhibin-B dimer assay, Serotec); type: cell-based, Wistar rats
Procedure: The in-vitro stimulating effect on inhibin-B generation was measured using inhibin-B dimer assays by Serotec, Oxford, UK. […] The difference between the released inhibin-B quantity with and without the test substance expresses the efficacy of the respective test substance.
The substances were tested for their stimulating effect on inhibin-B secretion in an in-vitro model using Sertoli cells originating from Wistar rats and cultivated for up to 4 days.
Wistar rats that were 18 days old were killed using CO2; their testicles were collected and mechanically chopped up using a surgical knife. The resulting cell pulp was enzymatically disintegrated with collagenase II, hyaluronidase, and DNase using the following method: The cell pulp was digested for 15 minutes at 37° C. in 20 ml of Dulbecco's Modified Essential Medium (DMEM) containing 20 mg of collagenase II; subsequently, it was sedimented for 7 minutes at room temperature. The supernatant was discarded. The remaining pellet was resuspended in DMEM, then sedimented again for 7 minutes. The next steps were a second decomposition for 30 minutes at 37° C. in 20 ml of DMEM containing 40 mg of collagenase II, 40 mg of hyaluronidase, and 0.1 mg of DNase, and a centrifugation step at 500 rpm. After washing in DMEM without additives and another centrifugation step, the pellet was a third time enzymatically disintegrated for 30 minutes at 37° C. in 20 ml of DMEM containing 40 mg of collagenase II, 40 mg of hyaluronidase and 0.1 mg of DNase, then centrifuged at 1,000 rpm. The pellet was then resuspended, washed once in DMEM without additives, and finally sublimated with 100 U/ml of penicillin, 100 μg/ml of streptomycin, 5 μg/ml of human transferrin, 2 μg/ml of insulin, 50 ng/ml of vitamin A (all from Sigma Co.), 200 ng/ml of vitamin E (Merck Co.), and 3 mg/ml of cytosine arabinoside (Sigma Co.) (DMEM-Z) and sowed in 24-well microtiter plates. After 48 hours, the cultivated cells were given hypotonic treatment using 20 mM of Tris-HCl (pH 7.4) to remove residual gametes, then the medium was changed into DMEM-Z.
1 ml of biological sample containing 10^6 Sertoli cells in 990 ml of DMEM-Z and test substances at a concentration range from 0.1 nM to 1 μM, each dissolved in 10 μl of absolute ethanol (1% w/v of the total batch) was incubated for 48 hours at 34° C. and 5% CO2. The culture supernatant was then decanted from the cells, frozen at −20° C. and kept until the inhibin-B level was determined.
0.1 ml of culture supernatant was mixed with 0.05 ml of SDS of the inhibin-B assay (Serotec, Oxford, UK) in 1.8 ml Eppendorf reaction vessels and heated for 3 minutes to 100° C. After the batch had cooled down, 0.1 ml of assay diluent and 0.05 ml of a 6% H2O2 solution were added, intermixed, then incubated for 30 minutes at room temperature.
80 ml of the above reaction mixture and 80 ml of the 7 inhibin-B standards for creating a calibration curve contained in the assay were pipetted into the wells of the microtiter plate contained in the assay and allowed to incubate at room temperature overnight. Finally the wells were washed 3 times with an inhibin washing buffer.
The content of the alkaline phosphatase-conjugated antibody against human inhibin-B contained in the assay was taken up in 6 ml of assay diluent, and 0.05 ml of this solution were pipetted into the wells and incubated for 3 hours at room temperature. […]

[1] = test system: epididymal and prostatic 5α-reductase; details: Monsalve 1977; Starka 1989; cited from earlier work
FSH levels in the plasma = details: depending on its dose; Bicikova 1993; cited from earlier work

Compound: C[C@]12CC[C@H]3[C@@H](CCC4=CC(=O)CC[C@@]43C)[C@@H]1CC[C@H]2O [17α-hydroxy-4-androstene-3-one]
- inhibin-B levels expressed from the culture supernatant as compared to the control tests (Sertoli cells; Sertoli cell culture, incubation time of 44 and 52 hours, FIG. 2 (EpiT 1 uM)): significantly increased
- increase of inhibin-B levels: concentration range of particularly striking effect (Sertoli cells; epitestosterone concentrations in the range from 10 nM to 1 pM): particularly striking
- inhibition of epididymal and prostatic 5α-reductase [1]: inhibits
- effect on FSH levels in the plasma (FSH levels in the plasma): either an inhibiting or an increasing effect

Compound: C[C@]12CCC(=O)C[C@@H]1CC[C@@H]1[C@@H]2CC[C@]2(C)[C@@H](O)CC[C@@H]12 [dihydrotestosterone]
- inhibin-B secretion after adding steroids from natural sources (Sertoli cells; Sertoli cell culture): not influenced

Compound: CC(=O)[C@H]1CC[C@H]2[C@@H]3CCC4=CC(=O)CC[C@]4(C)[C@H]3CC[C@]12C [progesterone]
- inhibin-B secretion after adding steroids from natural sources (Sertoli cells; Sertoli cell culture): not influenced

Compound: C[C@]12CC[C@H]3[C@@H](CCC4=CC(=O)CC[C@@]43C)[C@@H]1CC[C@@H]2O [testosterone]
- inhibin-B secretion after adding steroids from natural sources (Sertoli cells; Sertoli cell culture): not influenced

From patent US6432939B1, “17a-hydroxy-4-androstene-3-one and derivatives thereof” (priority 1999, dated 2002)
